Target: Mitogen-activated protein kinase 1 (Mus musculus, UniProt P63085)
Assay: IMAP Assay : Condition 1: Activated ERK2 activity was also determined in the IMAP assay format using the procedure outlined above. 1 μl of 25× compound was added to […] of kinase buffer containing 0.25 ng fully phosphorylated, active Mouse ERK2 protein. Following a 30 minute incubation, the reactions were initiated by addition of 10 μl of kinase buffer containing 1 μM ERK2 IMAP substrate peptide (0.9 μM unlabeled […]-CONH2 and 100 nM […](5-carboxyfluorescein)-CONH2) and 30 μM ATP. Reactions proceeded for 30 minutes before termination by addition of 60 μl IMAP detection beads in binding buffer. Plates were read as above after 30 minute binding equilibration. Active compounds were reconfirmed in an independent assay.

Mitogen-activated protein kinase 1, sequence (P63085 whole entry): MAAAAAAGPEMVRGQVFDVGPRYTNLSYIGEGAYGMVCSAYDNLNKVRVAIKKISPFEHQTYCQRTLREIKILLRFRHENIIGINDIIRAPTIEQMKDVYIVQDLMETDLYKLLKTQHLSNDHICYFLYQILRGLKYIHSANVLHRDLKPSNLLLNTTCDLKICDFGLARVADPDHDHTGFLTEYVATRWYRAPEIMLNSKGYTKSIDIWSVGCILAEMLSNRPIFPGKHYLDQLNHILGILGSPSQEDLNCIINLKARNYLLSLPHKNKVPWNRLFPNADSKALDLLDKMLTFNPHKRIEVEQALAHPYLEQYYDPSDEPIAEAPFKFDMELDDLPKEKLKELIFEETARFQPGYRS

Work on COc1cccc(F)c1CN1C[C@H](NC(=O)c2ccc3[nH]nc(-c4ccncc4)c3c2)CC[C@H]1C(=O)N1CCC(F)(F)CC1 yielded an IC50 of 35 nM.
